What was measured:
[1] = molecular target: T1, S-phase kinase associated protein 2 (Skp2) (Homo sapiens, UniProt P61024+Q13309); experiment: HTRF Skp2/Skp1-Cks1 binding inhibition assay; also CETSA of Skp2 in SGC-7901 cells
T1 construct: GST-Skp2/Skp1; with Skp1; Cks1 (His6-Cks1)

[2] = molecular target: T1, S-phase kinase associated protein 2 (Skp2); experiment: HTRF Skp2/Skp1-Cks1 binding inhibition assay

T1 sequence (Q13309 whole entry): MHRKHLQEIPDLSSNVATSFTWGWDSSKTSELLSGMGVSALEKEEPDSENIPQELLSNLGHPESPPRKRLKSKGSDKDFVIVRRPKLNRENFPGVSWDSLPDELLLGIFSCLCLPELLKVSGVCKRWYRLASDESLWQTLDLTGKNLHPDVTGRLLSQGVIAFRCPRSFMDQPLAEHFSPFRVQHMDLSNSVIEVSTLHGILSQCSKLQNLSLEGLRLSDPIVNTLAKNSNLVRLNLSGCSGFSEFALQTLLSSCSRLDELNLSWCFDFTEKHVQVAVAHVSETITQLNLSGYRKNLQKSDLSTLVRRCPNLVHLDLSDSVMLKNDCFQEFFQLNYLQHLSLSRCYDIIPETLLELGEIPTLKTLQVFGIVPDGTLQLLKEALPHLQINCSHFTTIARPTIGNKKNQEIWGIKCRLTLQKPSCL
T1 sequence (P61024 2-79): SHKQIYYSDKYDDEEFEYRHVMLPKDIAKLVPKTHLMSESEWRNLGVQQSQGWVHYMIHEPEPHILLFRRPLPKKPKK
T1 sequence (P63208 2-163 partner): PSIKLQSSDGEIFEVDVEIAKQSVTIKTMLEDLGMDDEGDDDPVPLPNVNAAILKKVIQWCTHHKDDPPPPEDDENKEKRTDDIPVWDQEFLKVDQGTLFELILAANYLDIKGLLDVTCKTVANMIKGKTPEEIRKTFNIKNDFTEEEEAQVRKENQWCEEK

Compound | IC50 [1] [µM] | IC50 [2] [µM]
C=CC(=O)Nc1cccc(-c2nnc(SCc3ccccc3)n2C)c1 [SYK-031] | 2.14 ± 0.76 | –
COC(=O)c1ccc(CCc2cc(O)ccc2O)cc1 [Skp2-1, NSC681152] | – | 58.7 ± 1.62
Cc1ccc(S(=O)(=O)Nc2cccc3cccnc23)cc1 [Skp2-2] | 27.8 ± 1.44 | –
